For experiment [1], the system named is Oomycetes. Particulars: from Strobel et al. 1999 / U.S. Ser. No. 09/858,871; cited from earlier work.
Experiment [2] deals with Oomycetes. Kind of experiment: Minimum inhibitory concentration tests against a number of plant fungal pathogens (summary). The format is cell-based. Particulars: e.g., P. cactorum, P. capsici, P. ultimum. As for the experimental part: (§1) 900 μl of potato dextrose broth was placed into the wells of a sterile 24-well culture plate. Serratamolide (in methanol) was added to the wells in concentrations of 0, 3.3, 10, 33 and 100 μg/ml. 20 μl methanol was added to one row to serve as a control. Fungal cultures to be tested were grown on PDA plates for three to five days. Pieces of agar containing the cultures were transferred to sterile microfuge tubes containing 0.5 ml sterile distilled water and broken up using a sterile Teflon pestle. 100 μl of PD broth containing the mycelia was added to each well, and growth inhibition was monitored over 3 days. At the end of 3 days cultures were transferred to a ground glass homogenizer, gently broken up, diluted in distilled water and the optical density measured using a Spectronic 20 spectrophotometer at 660 nm. The minimum inhibitory concentration was determined as the concentration of serratamolide compound needed to effect a 10% reduction in growth.

The test system of a further experiment is Botrytis cinera. The experiment in a line: Minimum inhibitory concentration in potato dextrose broth, 24-well plate. It is filed as cell-based. Particulars: 3 days, MIC = concentration needed to effect a 10% reduction in growth (OD 660 nm). As for the experimental part:
as §1

In the next experiment the test system is Phytophthora capsici. The experiment is described as above. Particulars: 3 days, MIC = concentration needed to effect a 10% reduction in growth (OD 660 nm). It is filed as cell-based. The protocol:
as §1

For the next experiment, the system named is Pythium ultimum. The description is as above. It is filed as cell-based. Particulars: 3 days, MIC = concentration needed to effect a 10% reduction in growth (OD 660 nm). As for the experimental part: as §1
Another experiment has as its system Rhizoctonia solani. Described as above. The format is cell-based. Particulars: 3 days, MIC = concentration needed to effect a 10% reduction in growth (OD 660 nm). The protocol:
as §1

Another experiment has as its system Phytophthora cactorum. The experiment is described as above. It is filed as cell-based. Particulars: 3 days, MIC = concentration needed to effect a 10% reduction in growth (OD 660 nm). As for the experimental part: as §1
A further experiment has as its system Phytophtora parasitica. Described as above. The format is cell-based. Particulars: 3 days, MIC = concentration needed to effect a 10% reduction in growth (OD 660 nm). As for the experimental part:
as §1

Converted amounts (≈) assume the structure as drawn. Where only a bound is given, the exact number is not on record here.

Consider `CC(=O)OC1CC(=O)O[C@H]2C[C@H](CC/C(Cl)=C\C/C=C\1C)O[C@H]2[C@@H](O)/C=C(\C)CC(=O)O` (some centres unmarked) [oocydin A], for which the “Activity against Oomycetes, MICs relative to metalaxyl” value in the experiment with Oomycetes [1] is “selective lethal activity against Oomycetes at MICs lower or similar to those noted for metalaxyl”.
Take `CCCCCCC[C@@H]1CC(=O)N[C@@H](CO)C(=O)O[C@H](CCCCCCC)CC(=O)N[C@@H](CO)C(=O)O1` [serratamolide]: in the experiment with Oomycetes [2], the “Spectrum of activity among plant pathogens tested” value was “active against Oomycetes only”. Besides, the Minimum inhibitory concentration with Botrytis cinera was above 100 µg/mL; in the experiment with Phytophthora capsici, 10 µg/mL (≈ 19.4 µM); in the experiment on Pythium ultimum, 6 µg/mL (≈ 11.7 µM); in the experiment with Rhizoctonia solani, above 100 µg/mL; in the experiment with Phytophthora cactorum it was 60 µg/mL (≈ 117 µM); in the experiment on Phytophtora parasitica, 6 µg/mL (≈ 11.7 µM).

Source of the values: patent publication US6926892B2, “Protecting plants from oomycete pathogens by treatment with compositions containing serratamolide and oocydin a from Serratia marcescens” (HMV Corporation, priority 2000, dated 2005).
